Measured values reported in ChEMBL document CHEMBL1201862, “PubChem BioAssay data set” (2004).
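Exposure lasted 48 hours, with cells grown in 96-well plates and compounds tested at five concentrations. Here, GI50 denotes the concentration required for 50% inhibition of growth.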 Active and inactive are the calls of the source. No stated cut-off is given here; in the data, active = GI50 up to about 1.1 µM and inactive = higher.

Experiments:
Assay in all cases: growth of human tumour cells (NCI), 48 h
DLD-1 = system: DLD-1
DMS-273 = system: DMS-273
HOP-18 = system: HOP-18
KM-20L2 = system: KM-20L2
LXFL 529 = system: LXFL 529
M19-MEL = system: M19-MEL
XF498 = system: XF498
SNB-78 = system: SNB-78
RXF 631 = system: RXF 631

SMILES | GI50 (DLD-1) | GI50 (DMS-273) | GI50 (HOP-18) | GI50 (KM-20L2) | GI50 (LXFL 529) | GI50 (M19-MEL) | GI50 (XF498) | GI50 (SNB-78) | GI50 (RXF 631)
CSC(=N)N1N=C2c3ccccc3CC[C@@H]2[C@@H]1c1ccccc1 | 12.9 µM (inactive) | 15 µM (inactive) | 18.5 µM (inactive) | 12 µM (inactive) | 11.5 µM (inactive) | 15.9 µM (inactive) | 16.7 µM (inactive) |  | 
CCCCCC(=O)N[C@H]1CCc2cc(O)c(O)c(O)c2-c2ccc(SC)c(=O)cc21 | 19.6 µM (inactive) | 32.5 µM (inactive) |  | 27.6 µM (inactive) | 21.5 µM (inactive) | 19.9 µM (inactive) |  | 65.2 µM (inactive) | 
Cc1ccc(NC(=O)C2C3CCC(O3)C2C(=O)O)cc1 (configuration not stated) | > 54.1 µM (inactive) | > 57.8 µM (inactive) | > 86.3 µM (inactive) | > 26.6 µM (inactive) | > 46.2 µM (inactive) | > 61.2 µM (inactive) | 22.6 µM (inactive) | > 86.7 µM (inactive) | 53.7 µM (inactive)
CC(=O)N1C(=O)C(=O)c2cc(Cl)ccc21 | > 100 µM (inactive) | > 100 µM (inactive) | > 100 µM (inactive) |  | > 100 µM (inactive) | > 100 µM (inactive) | 0.234 µM (active) | > 100 µM (inactive) | > 100 µM (inactive)
COc1nc(OC)nc(Sc2ccc(Sc3ccc(Sc4nc(OC)nc(OC)n4)cc3)cc2)n1 | > 100 µM (inactive) | > 100 µM (inactive) | > 100 µM (inactive) | > 100 µM (inactive) | > 100 µM (inactive) | > 100 µM (inactive) | > 100 µM (inactive) | > 100 µM (inactive) | 
O=C(Nc1cccc(O)c1)C(=O)C(C(=O)c1ccc(Cl)c(Cl)c1)C1OC(=O)c2ccccc21 (configuration not stated) |  | 10.1 µM (inactive) | 25.5 µM (inactive) | 18.8 µM (inactive) | 12.2 µM (inactive) | 12.4 µM (inactive) | 10.9 µM (inactive) | 7.08 µM (inactive) | 
Oc1cccc2c1NC1=C(CCC/C1=C\c1ccccc1)C2 |  | 66.7 µM (inactive) |  | 52.6 µM (inactive) | 89.5 µM (inactive) | 55.8 µM (inactive) | 57.1 µM (inactive) |  | 
OC1CN(OC/C=C/c2ccccc2)CC(O)C1O (configuration not stated) | 87.3 µM (inactive) | > 100 µM (inactive) | > 100 µM (inactive) | > 100 µM (inactive) | 60.1 µM (inactive) | > 100 µM (inactive) | > 100 µM (inactive) | > 100 µM (inactive) | 
Cc1cccc(C2=C/C(=C(\SS/C(C(=O)c3ccc(OCC(=O)O)c(Cl)c3Cl)=C3\C=C(c4cccc(C)c4)SS3)C(=O)c3ccc(OCC(=O)O)c(Cl)c3Cl)SS2)c1 | 27.4 µM (inactive) | 31.3 µM (inactive) | 12.8 µM (inactive) | 47.1 µM (inactive) |  | 19.1 µM (inactive) | 7.98 µM (inactive) | 15.6 µM (inactive) | 
C=C1C(=O)OC2C(C)C3C=CC(=O)[C@@]3(C)C(OC(=O)/C(C)=C/C)C1[C@@H]2OC(C)=O (some centres not stated) | 0.5 µM (active) | 0.541 µM (active) | 1.79 µM (inactive) | 1.51 µM (inactive) | 0.359 µM (active) | 0.547 µM (active) | 1.25 µM (inactive) | 0.396 µM (active) | 
COC(=O)C(=O)C(C(=O)C(=O)Nc1ccc([N+](=O)[O-])cc1)c1nc2ccccc2nc1O (configuration not stated) | > 100 µM (inactive) | 47.1 µM (inactive) | > 100 µM (inactive) | 22.1 µM (inactive) | 34.2 µM (inactive) | > 100 µM (inactive) | > 100 µM (inactive) |  | > 100 µM (inactive)
Cc1ccc(NC(=O)CC(=O)n2nc(-c3ccccc3)c(/N=N/c3ccc(Cl)cc3)c2-c2ccccc2)cc1 | 15.3 µM (inactive) | 83.8 µM (inactive) | 39 µM (inactive) | 49.9 µM (inactive) | 64.7 µM (inactive) | 22 µM (inactive) |  | > 100 µM (inactive) | > 100 µM (inactive)
C=C1CC(CCCl)(c2ccccc2)OC1=O (configuration not stated) | 20.1 µM (inactive) | 34.7 µM (inactive) | > 42.9 µM (inactive) | 61.8 µM (inactive) | 20 µM (inactive) | 34.7 µM (inactive) | 41.2 µM (inactive) | 42.2 µM (inactive) | > 42.7 µM (inactive)
CCC(CO)COC(=O)/C=C/C(=O)OCC(CC)CO (configuration not stated) | > 85.9 µM (inactive) | > 100 µM (inactive) | > 100 µM (inactive) | > 100 µM (inactive) | 78.7 µM (inactive) | > 100 µM (inactive) | > 100 µM (inactive) | > 100 µM (inactive) | > 100 µM (inactive)
Cc1cc2c(=O)cc(-c3ccncc3)oc2c(C(=O)O)c1C |  | > 100 µM (inactive) | > 100 µM (inactive) | > 100 µM (inactive) | > 100 µM (inactive) | > 100 µM (inactive) | > 100 µM (inactive) | > 100 µM (inactive) | > 100 µM (inactive)
COc1ccc(/C=C/C(C(=O)O)C(=O)O)cc1 | > 100 µM (inactive) | > 100 µM (inactive) |  | 91.6 µM (inactive) | 36.4 µM (inactive) | 61.8 µM (inactive) | > 100 µM (inactive) | 48.1 µM (inactive) | 

SMILES | GI50 (DLD-1) | GI50 (DMS-273) | GI50 (HOP-18) | GI50 (KM-20L2) | GI50 (LXFL 529) | GI50 (M19-MEL) | GI50 (XF498) | GI50 (SNB-78) | GI50 (RXF 631)
COc1c(OC2OC(CO)C(O)C(O)C2O)cc2c(c1OC)-c1ccc(OC)c(=O)cc1C(NC(C)=O)CC2 (configuration not stated) | > 100 µM (inactive) | > 100 µM (inactive) | > 100 µM (inactive) | > 100 µM (inactive) | 86.1 µM (inactive) | > 91.2 µM (inactive) | 83.6 µM (inactive) | > 100 µM (inactive) | > 100 µM (inactive)
Cc1c(C(=O)C/C(=N/NC(=O)C[n+]2ccccc2)C(=O)Nc2ccccc2)[n+]([O-])c2ccccc2[n+]1[O-] | > 100 µM (inactive) | > 100 µM (inactive) | > 100 µM (inactive) | > 100 µM (inactive) | > 100 µM (inactive) | > 100 µM (inactive) | > 100 µM (inactive) | > 100 µM (inactive) | > 100 µM (inactive)
C=CCCCC(C#N)(c1ccccc1)N1CCCC1 (configuration not stated) |  | > 100 µM (inactive) |  | > 100 µM (inactive) |  | > 100 µM (inactive) |  | > 100 µM (inactive) | 
CN1CCN(CCn2c3c4ccccc4ccc3c3oc(=O)c4ccccc4c32)CC1 | 2.28 µM (inactive) |  | 12.6 µM (inactive) | 2.58 µM (inactive) | 4.06 µM (inactive) | 10.8 µM (inactive) |  | 11.4 µM (inactive) | 5.19 µM (inactive)
C#C[C@]1(O)CCCC2=CC(=O)CC[C@@]21C | > 100 µM (inactive) | > 100 µM (inactive) | > 100 µM (inactive) | > 100 µM (inactive) | > 100 µM (inactive) | > 100 µM (inactive) |  |  | 
Cn1cnc([N+](=O)[O-])c1Sc1nnnn1-c1ccccc1 | 6.68 µM (inactive) | 15 µM (inactive) | 1.58 µM (inactive) |  | 4.27 µM (inactive) | 12.1 µM (inactive) | 11.6 µM (inactive) | 13.7 µM (inactive) | 14.2 µM (inactive)
Cc1cccc(C)c1NC(=O)CCCC(=O)C(C#N)c1ccc(Cl)cc1 (configuration not stated) | > 100 µM (inactive) | > 100 µM (inactive) | > 100 µM (inactive) | > 100 µM (inactive) | > 100 µM (inactive) | > 100 µM (inactive) |  | > 100 µM (inactive) | 
CCOC(=O)/C(=C/c1ccccc1Br)P(=O)(OCC)OCC | 1.29 µM (inactive) | 1.26 µM (inactive) | 3.34 µM (inactive) | 2.25 µM (inactive) | 1.29 µM (inactive) | 1.55 µM (inactive) | 1.93 µM (inactive) |  | 2.5 µM (inactive)
COc1c(OC)c(N)c2cc(C)c(=O)c(C)cc2c1N | 55.7 µM (inactive) | > 100 µM (inactive) | > 100 µM (inactive) | > 100 µM (inactive) | 64.9 µM (inactive) | > 100 µM (inactive) | > 100 µM (inactive) | > 100 µM (inactive) | 
NC(CCSCCF)C(=O)O (configuration not stated) |  | > 100 µM (inactive) | > 100 µM (inactive) | > 100 µM (inactive) | > 100 µM (inactive) | > 100 µM (inactive) |  | > 100 µM (inactive) | 
CC(=O)O[C@@H]1CC[C@@]2(C)C(=O)C34C[C@@]5(C)C([C@@H](C)CCCC(C)C)CCC5(C)[C@](O)(O3)C(=O)[C@H]4C2C1(C)C (some centres not stated) | 18 µM (inactive) | 13.4 µM (inactive) | 15.8 µM (inactive) | 17.4 µM (inactive) | 16.7 µM (inactive) | 13.8 µM (inactive) |  | 20.8 µM (inactive) | 12.6 µM (inactive)
C[C@@H](CO)OCOCc1ccccc1 | > 100 µM (inactive) | > 100 µM (inactive) |  |  | > 100 µM (inactive) | > 100 µM (inactive) | > 100 µM (inactive) | > 100 µM (inactive) | 
N#CC(C#N)=C1NC(=O)CC(=O)N1 | > 100 µM (inactive) | > 100 µM (inactive) |  | > 100 µM (inactive) | > 100 µM (inactive) | > 100 µM (inactive) | > 100 µM (inactive) | > 100 µM (inactive) | 
CSCC(COC(C)=O)(CSC)c1ccncc1 |  | > 100 µM (inactive) |  | > 100 µM (inactive) | > 100 µM (inactive) | > 100 µM (inactive) |  | > 100 µM (inactive) | 
NNC(=O)N/N=C1\CNC(=O)C(=O)C1c1nc2ccccc2s1 (configuration not stated) | > 100 µM (inactive) | > 100 µM (inactive) |  | > 100 µM (inactive) | > 100 µM (inactive) | > 100 µM (inactive) | > 100 µM (inactive) | > 100 µM (inactive) | 
